The target in the assay is T1, KRAS (G12D)-HiBit in AsPc-1-KRAS (G12D)-HiBit-KI cell (Homo sapiens, UniProt P01116, G12D).
T1 construct: host or cells: AsPc-1-KRAS (G12D)-HiBit-KI cells (knock-in line)
T1 sequence (P01116 1-188 isoform P01116-2 G12D): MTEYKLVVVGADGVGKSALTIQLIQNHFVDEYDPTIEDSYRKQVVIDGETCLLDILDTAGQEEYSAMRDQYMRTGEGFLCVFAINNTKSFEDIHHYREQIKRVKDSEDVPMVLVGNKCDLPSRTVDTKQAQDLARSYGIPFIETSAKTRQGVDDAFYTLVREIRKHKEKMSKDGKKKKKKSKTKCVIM
The assay is described as follows: G12D HiBit assay. Type of assay: cell-based. The note with it: 24 hours compound treatment, absolute DC50, read-out: Average PHA DC50. How it is done: Day 1. Prepared the culture medium for AsPc-1-KRAS (G12D)-HiBit-KI cell (Pharmaron) using RPMI 1640 medium (Gibco, 11875093) with 10% FBS (Gibco, 10099141C) and 1% Penicillin-Streptomycin Liquid (Solarbio, P1400). Cultivated cells in T-75 flasks in a cell culture incubator (Thermo, Model: 371) at 37° C., 5% CO2. Allowed cells to reach approximately 80% confluence before splitting. Rinsed cultivated cells in T-75 flasks with 5 mL PBS (Solarbio, P1020-500). Aspirated off PBS, added 1.5 mL trypsin (Invitrogen, #25300), and incubated at 37° C. for approximately 5 minutes or until the cells detached. Inactivated trypsin by adding excessive serum containing medium. Harvested the cells from flask into cell culture medium and counted the cell number. Seeded AsPc-1-KRAS (G12D)-HiBit-KI cell into 384-well plate (Corning, 3570) (cell density: 5×10^3 cells/well in 50 μL medium) in RPMI 1640 medium and incubated overnight at 37° C. and 5% CO2.
Day 2. Test compounds were dissolved at 0.3 mM in DMSO (Solarbio, D8371) as stock solution. Transferred 45 μL of stock solution to a 384-well plate (Labcyte, 001-14555). Performed 3-fold, 10-points dilution via transferring 15 μL compound into 30 μL DMSO by using TECAN liquid handler (TECAN, Freedom EVO200). The compound plates were spin at room temperature at 1,000 RPM for 1 minute (Eppendorf, 5810R). Transferred 50 nL of diluted compounds from compound source plate into the cell plate by Echo (Labcyte, 550) to achieve final concentrations of 300 nM, 100 nM, 33.3 nM, 11.1 nM, 3.7 nM, 1.23 nM, 0.41 nM, 0.14 nM, 0.046 nM and 0.015 nM, then mixed the cell plate on a plate shaker (Yoning, WZ-4) for 15 seconds at 900 rpm. After compound treatment for 24 hours, removed the plate from incubators and equilibrated at room temperature for 15 minutes. Prepared the HiBit reagent (Promega, N3040) by mixing 10 mL of Nano-Glo®-HiBiT Lytic Buffer with 200 μL of Nano-Glo®-HiBiT Lytic Substrate and 100 μL of LgBiT Protein. Added 20 μL of HiBit reagent into each well of the cell plate and spun the plates at room temperature at 1,000 RPM for 1 minute. Then shook the plates at 600 RPM at room temperature for 20 minutes using a plate shaker (Yoning, WZ-4), and read the luminescence by EnVision (PerkinElmer, 2105-0020).
The inhibition activity was calculated using the following formula: HiBit-G12D level (%)=100%×[Luminescence(Sample)/Mean of Luminescence (HC)] where HC (high control) is obtained from cells treated with 0.1% DMSO only.
Absolute DC50 was calculated by fitting the curve using GraphPad Prism v8.0.2 (analyis 263): Y=Bottom+(100−Bottom)/(1+10^(Log AbsoluteIC50−X)*HillSlope+log((100−Bottom)/(50−Bottom)−1)))
The data are reported in Table 3, wherein “+++”=DC50 less than 100 nM, “++”=DC50 greater than or equal to 100 nM and less than 300 nM; “+”=DC50 greater than or equal to 300 nM.
Background: With HiBiT, luminescence reflects the tagged protein that the partner subunit can reach.
For `C#Cc1c(F)ccc2cccc(-c3ncc4c(N5CC6CCC(C5)N6)nc(OC[C@@]56CCCN5[C@H](COC(=O)N5CCC(C7CCN(c8ccc9c(c8)n(C)c(=O)n9C8CCC(=O)NC8=O)CC7)CC5)CC6)nc4c3F)c12` (some centres unmarked) [Compound 70], the DC50 is at least 300 nM.

For `C#Cc1c(F)ccc2cccc(-c3ncc4c(N5CC6CCC(C5)N6)nc(OC[C@@]56CCCN5[C@H](COC(=O)N5CCC(OCC7CCN(Cc8ccc9c(c8)n(C)c(=O)n9C8CCC(=O)NC8=O)CC7)CC5)CC6)nc4c3F)c12` (some centres unmarked) [Compound 71], the DC50 was under 100 nM.

Turning to `C#Cc1c(F)ccc2cccc(-c3ncc4c(N5CC6CCC(C5)N6)nc(OC[C@@]56CCCN5[C@H](COC(=O)N5CCN(C7CCN(Cc8ccc9c(c8)n(C)c(=O)n9C8CCC(=O)NC8=O)CC7)CC5)CC6)nc4c3F)c12` (some centres unmarked) [Compound 72], the DC50 fell in the range of 100 to 300 nM.

As to `C#Cc1c(F)ccc2cccc(-c3ncc4c(N5CC6CCC(C5)N6)nc(OC[C@@]56CCCN5[C@H](COC(=O)N5CCC(COC7CN(Cc8ccc9c(c8)n(C)c(=O)n9C8CCC(=O)NC8=O)C7)CC5)CC6)nc4c3F)c12` (some centres unmarked) [Compound 73], the DC50 is under 100 nM.

On to `C#Cc1c(F)ccc2cccc(-c3ncc4c(N5CC6CCC(C5)N6)nc(OC[C@@]56CCCN5[C@H](COC(=O)N5CCC(OC7CN(Cc8ccc9c(c8)n(C)c(=O)n9C8CCC(=O)NC8=O)C7)CC5)CC6)nc4c3F)c12` (some centres unmarked) [Compound 74], for which the DC50 is under 100 nM.

Consider `C#Cc1c(F)ccc2cccc(-c3ncc4c(N5CC6CCC(C5)N6)nc(OC[C@@]56CCCN5[C@H](COC(=O)N5CCC(N7CCC(Cc8ccc9c(c8)n(C)c(=O)n9C8CCC(=O)NC8=O)CC7)CC5)CC6)nc4c3F)c12` (some centres unmarked) [Compound 75], for which the DC50 is 100 to 300 nM.

On to `C#Cc1c(F)ccc2cccc(-c3ncc4c(N5CC6CCC(C5)N6)nc(OC[C@]56CCCN5[C@@H](COC(=O)N5CCC(CN7CCC(c8ccc9c(c8)n(C)c(=O)n9C8CCC(=O)NC8=O)CC7)CC5)CC6)nc4c3F)c12` (some centres unmarked) [Compound 76], for which the DC50 was under 100 nM.

For `C#Cc1c(F)ccc2cccc(-c3ncc4c(N5CC6CCC(C5)N6)nc(OC[C@]56CCCN5[C@@H](COC(=O)N5CCC(CC7CCN(Cc8cccc9c8n(C)c(=O)n9C8CCC(=O)NC8=O)CC7)CC5)CC6)nc4c3F)c12` (some centres unmarked) [Compound 77], the DC50 was 100 to 300 nM.

In the case of `C#Cc1c(F)ccc2cccc(-c3ncc4c(N5CC6CCC(C5)N6)nc(OC[C@@]56CCCN5[C@H](COC(=O)N5CC(CN7CCC(Oc8cccc9c8n(C)c(=O)n9C8CCC(=O)NC8=O)CC7)C5)CC6)nc4c3F)c12` (some centres unmarked) [Compound 78], the DC50 is under 100 nM.

For `C#Cc1c(F)ccc2cccc(-c3ncc4c(N5CC6CCC(C5)N6)nc(OC[C@@]56CCCN5[C@H](COC(=O)N5CCC(CN7CCC(c8cccc9c8n(C)c(=O)n9C8CCC(=O)N(C)C8=O)CC7)CC5)CC6)nc4c3F)c12` (some centres unmarked) [Compound 79], the DC50 was at least 300 nM.

For `C#Cc1c(F)ccc2cccc(-c3ncc4c(N5CC6CCC(C5)N6)nc(OC[C@@]56CCCN5[C@H](COC(=O)N5CC[C@H](CN7CCC(c8ccc9c(c8)n(C)c(=O)n9C8CCC(=O)NC8=O)CC7)C5)CC6)nc4c3F)c12` (some centres unmarked) [Compound 80], the DC50 was under 100 nM.

`C#Cc1c(F)ccc2cccc(-c3ncc4c(N5CC6CCC(C5)N6)nc(OC[C@@]56CCCN5[C@H](COC(=O)N5CC[C@@H](CN7CCC(c8ccc9c(c8)n(C)c(=O)n9C8CCC(=O)NC8=O)CC7)C5)CC6)nc4c3F)c12` (stereo partly drawn) [Compound 81, [(3S,8S)-8-[[4-(3,8-Diazabicyclo[3.2.1]octan-3-yl)-7-(8-ethynyl-7-fluoro-1-naphthyl)-8-fluoro-pyrido[4,3-d]pyrimidin-2-yl]oxymethyl]-1,2,3,5,6,7-hexahydropyrrolizin-3-yl]methyl (3S)-3-[[4-[1-(2,6-dioxo-3-piperidyl)-3-methyl-2-oxo-benzimidazol-5-yl]-1-piperidyl]methyl]pyrrolidine-1-carboxylate]: the DC50 was under 100 nM.

In the case of `C#Cc1c(F)ccc2cc(O)cc(-c3ncc4c(N5CC6CCC(C5)N6)nc(OC[C@@]56CCCN5[C@H](COC(=O)N5CCC(CN7CCC(c8ccc9c(c8)n(C)c(=O)n9C8CCC(=O)NC8=O)CC7)CC5)CC6)nc4c3F)c12` (stereo partly drawn) [Compound 82, [(3S,8S)-8-[[4-(3,8-Diazabicyclo[3.2.1]octan-3-yl)-7-(8-ethynyl-7-fluoro-3-hydroxy-1-naphthyl)-8-fluoro-pyrido[4,3-d]pyrimidin-2-yl]oxymethyl]-1,2,3,5,6,7-hexahydropyrrolizin-3-yl]methyl 4-[[4-[1-(2,6-dioxo-3-piperidyl)-3-methyl-2-oxo-benzimidazol-5-yl]-1-piperidyl]methyl] piperidine-1-carboxylate], the DC50 was under 100 nM.

As for `C#Cc1c(F)ccc2cccc(-c3ncc4c(N5CC6CCC(C5)N6)nc(OC[C@@]56CCCN5[C@H](COC(=O)N5CC(OC7CCN(Cc8cccc9c8n(C)c(=O)n9C8CCC(=O)NC8=O)CC7)C5)CC6)nc4c3F)c12` (stereo partly drawn) [Compound 83, [(3S,8S)-8-[[4-(3,8-Diazabicyclo[3.2.1]octan-3-yl)-7-(8-ethynyl-7-fluoro-1-naphthyl)-8-fluoro-pyrido[4,3-d]pyrimidin-2-yl]oxymethyl]-1,2,3,5,6,7-hexahydropyrrolizin-3-yl]methyl3-[[1-[[1-(2,6-dioxo-3-piperidyl)-3-methyl2-oxo-benzimidazol-4-yl]methyl]-4-piperidyl]oxy]azetidine-1-carboxylate], the DC50 is under 100 nM.

With `C#Cc1c(F)ccc2cccc(-c3ncc4c(N5CC6CCC(C5)N6)nc(OC[C@@]56CCCN5[C@H](COC(=O)N5CCC(CCN7CCN(Cc8cccc9c8n(C)c(=O)n9C8CCC(=O)NC8=O)CC7)CC5)CC6)nc4c3F)c12` (stereo partly drawn) [Compound 84, [(3S,8S)-8-[[4-(3,8-Diazabicyclo[3.2.1]octan-3-yl)-7-(8-ethynyl-7-fluoro-1-naphthyl)-8-fluoro-pyrido[4,3-d]pyrimidin-2-yl]oxymethyl]-1,2,3,5,6,7-hexahydropyrrolizin-3-yl]methyl4-[2-[4-[[1-(2,6-dioxo-3-piperidyl)-3-methyl-2-oxo-benzimidazol-4-yl]methyl]piperazin-1-yl]ethyl]piperidine-1-carboxylate], the DC50 is under 100 nM.

On to `C#Cc1c(F)ccc2cccc(-c3ncc4c(N5CC6CCC(C5)N6)nc(OC[C@@]56CCCN5[C@H](COC(=O)N5CCN(CCC7CCN(Cc8cccc9c8n(C)c(=O)n9C8CCC(=O)NC8=O)CC7)CC5)CC6)nc4c3F)c12` (stereo partly drawn) [Compound 85, [(3S,8S)-8-[[4-(3,8-Diazabicyclo[3.2.1]octan-3-yl)-7-(8-ethynyl-7-fluoro-1-naphthyl)-8-fluoro-pyrido[4,3-d]pyrimidin-2-yl]oxymethyl]-1,2,3,5,6,7-hexahydropyrrolizin-3-yl]methyl4-[2-[1-[[1-(2,6-dioxo-3-piperidyl)-3-methyl-2-oxo-benzimidazol-4-yl]methyl]-4-piperidyl]ethyl]piperazine-1-carboxylate], for which the DC50 is under 100 nM.

For `C#Cc1c(F)ccc2cccc(-c3ncc4c(N5CC6CCC(C5)N6)nc(OC[C@@]56CCCN5[C@H](COC(=O)N5CCC(CCN7CCN(Cc8ccc9c(c8)n(C)c(=O)n9C8CCC(=O)NC8=O)CC7)CC5)CC6)nc4c3F)c12` (stereo partly drawn) [Compound 87, [(3S,8S)-8-[[4-(3,8-Diazabicyclo[3.2.1]octan-3-yl)-7-(8-ethynyl-7-fluoro-1-naphthyl)-8-fluoro-pyrido[4,3-d]pyrimidin-2-yl]oxymethyl]-1,2,3,5,6,7-hexahydropyrrolizin-3-yl]methyl 4-[2-[4-[[1-(2,6-dioxo-3-piperidyl)-3-methyl-2-oxo-benzimidazol-5-yl]methyl]piperazin-1-yl]ethyl]piperidine-1-carboxylate], the DC50 is under 100 nM.

The values above are taken from patent US12404285B2, “KRAS G12D proteolysis targeting chimeras” (PAQ Therapeutics Inc., priority 2022, dated 2025).
